The source of these data is patent publication US20090087376A1, “Heterocyclic Dye Compounds For In Vivo Imaging And Diagnosis Of Alzheimer's Disease” (The General Hospital Corporation, priority 2004, published 2009).

In one data set the test system is β-amyloid plaques. As to the kind of experiment: Plaque specificity of dye compounds. The format is binding.
A further data set is described as follows: Enter CNS (BBB). The conditions noted are these: in vivo.
A short description of data set [1]: Near-IR spectra of dye compounds. The format is physicochemical.

Turning to `CC1(C)C(/C=C/c2ccc(-c3ccc(-c4ccc(O)cc4)s3)s2)=[N+](CCCS(=O)(=O)[O-])c2ccccc21` [NIAD1], the Plaque specificity entry with β-amyloid plaques is listed as “Yes”. Besides, the “Enter CNS (BBB)” value in “Enter CNS (BBB)” is on record as “Yes/No”. Also, the Near-IR spectra entry in data set [1] was “Yes”.
With `C[N+]1=C(/C=C/c2ccc(-c3ccc(-c4ccc(O)cc4)s3)s2)C(C)(C)c2ccccc21.[Cl-]` [NIAD3], the Plaque specificity result with β-amyloid plaques is recorded as “Yes”. The “Enter CNS (BBB)” value in the data set “Enter CNS (BBB)” is recorded as “No”. For the same compound, the Near-IR spectra result in data set [1] was “Yes”.
For `CN(C)c1ccc(-c2sc(-c3ccc(C=C(C#N)C#N)s3)c3ccccc23)cc1` [NIAD6], in the data set with β-amyloid plaques, the Plaque specificity result is on record as “Yes”. The “Enter CNS (BBB)” value in the data set “Enter CNS (BBB)” is “No”. Besides, the Near-IR spectra result in data set [1] is listed as “Yes”.
With `CN(C)c1ccc(-c2ccc(-c3ccc(C=C4C(=C(C#N)C#N)c5ccccc5C4=C(C#N)C#N)s3)s2)cc1` [NIAD7], in the data set on β-amyloid plaques, the Plaque specificity result is recorded as “Yes”. Further, in the data set “Enter CNS (BBB)”, the “Enter CNS (BBB)” value was “Yes”. Moreover, the Near-IR spectra result in data set [1] was “No”.
